The source of these data is patent publication US8853264B2, “Use of lignan compounds for treating or preventing inflammatory disease” (Newtree Industry Co., Ltd., priority 2005, dated 2014).

SMILES strings stand for the structures. Bounds are passed on as bounds.

One series deals with NO. The experiment in a line: NO production in RAW264.7 cells activated with LPS (Griess). The class given is cell-based. The method, then:
RAW264.7 cells were diluted at a concentration of 1×10^6 cell/ml and then inoculated into RPMI 1640 medium. After 5 hours, the inventive macelignan was added to the medium at each of a concentration of 1-20 μM, followed by incubation for 2 hours. Then, the medium was treated with LPS (10 μg/ml) and incubated for 24 hours. A control group was treated only with LPS. The production of NO was quantified by measuring NO2^−, a reaction product of NO, using the remains of cell culture (Han et al., Life Sci., 75(6): 675-684, 2004). 100 μl of the remains of cell culture and the same volume of Greiss reagent (0.5% sulfanilyamide, 0.05% N-(1-naphthyl)ethylene diamine dihydrochloride/2.5% H3PO4) were mixed with each other on a 96-well tissue culture plate and allowed to react in a dark place for 10 minutes. Then, the absorbance of the sample was measured at 550 nm using the ELISA microplate reader. […] All tests were repeated at three times, and then quantified by student's t-test.
A general note: The Griess reaction detects nitrite, a stable product of nitric oxide.

Series [1] is described as follows: Toxicity in oral administration to rats. As to conditions: rat, in vivo, read-out: 50% lethality (LD50). The protocol: The inventive lignan compound was tested for toxicity in oral administration to rats, and as a result, it was observed that the 50% lethality (LD50) was more than 2,000 mg/kg.
The test system of a further series is TNF-α mRNA. Kind of series: TNF-α mRNA level in skin lesion (RT-PCR). Type of series: in vivo, NC/Nga mice. The method, then: In order to induce atopic dermatitis, 100 mg of mite antigen cream was applied on the ear, occipital region and back of NC/Nga mouse (9 to 11 weeks old), except for the negative control group, 3 times a week, 2 hours after the application of 4% SDS solution. Three weeks later, it was observed whether atopic dermatitis was induced by checking skin rash, erythema, cornification, or the like. Atopic dermatitis was induced in all groups except for the negative control group. […] Transepidermal water loss (TEWL), skin hydration and erythema index were measured one day before the end of the test. […]
After the end of the experiment, skin tissue was isolated from the occipital region to the back of the mouse, immersed in liquid nitrogen, pulverized using a mortar, dissolved in 500 μL of TRIzol® (InvitrogenLife Technologies, USA), and then homogenized using a homogenizer in order to measure mRNA level of cytokines in skin lesion. […] After the centrifuge, the supernatant was discarded and the remaining pellets were washed 2 times with 100% ethanol, dried, and then subjected to RNA quantification by spectrophotometry. […]

In another series the test system is glycoprotein (mucin). Kind of series: Glycoprotein level in BAL fluid (ELISA), asthma model. Type of series: in vivo, C57BL/6 (B6) male mice. As to conditions: oral 400 μg/g and 800 μg/g. The protocol: 5 μL of allergen, AP (aspergillus protease, 1 mg/mL, Sigma-Aldrich, St. Louis, Mo.) was mixed with 45 μL of OVA (chicken egg ovalbumin, 0.5 mg/mL, Sigma-Aldrich). After 3 intraperitoneal injections with 4-day intervals, asthma was induced by 2 intranasal challenges with 4-day interval. The intranasal challenge was performed under isoflurane inhalational anesthesia. Macelignan dissolved in corn oil was orally administered every day.
Within 24 hours after the last allergen challenge, the mouse was anesthetized by intraperitoneal injection of 0.1 mg/g sodium pentobarbital. After tracheal intubation, flexiVent (Scireq®, Montreal, Canada) was connected to maintain stable ventilation. Thereafter, striated muscle was relaxed by intravenous (IV) administration of 0.08 mg/kg pancuronium (Sigma-Aldrich). […]
When asthma is induced, secretion of mucin increases in the airway. Glycoprotein ELISA was carried out to quantitate mucin in BAL fluid. […] After blocking, followed by treating with biotinylated jacalin and then with streptavidin-alkaline phosphatase, substrate was added and absorbance was measured at 405 nm Glycoprotein level in the BAL fluid was determined by comparing with the standard curve obtained using the standard solution.
(In general: An ELISA detects its analyte on a solid surface through an enzyme-linked reagent.)

Regarding `COc1cc(C[C@H](C)[C@H](C)Cc2ccc3c(c2)OCO3)ccc1O` (single isomer, unassigned) [macelignan], the “inhibition of NO production at low concentrations” value in the series with NO (1 μM and 5 μM, P<0.01) is on record as “excellent effects on the inhibition of NO production”. The “production of NO at 20 μM” value in the series on NO (20 μM macelignan) was “inhibited to an extent almost similar to that of the group treated with nothing”. Also, the “production of NO” value in the series on NO (1-20 μM, LPS 10 μg/ml, 24 hours) is listed as “concentration-dependently inhibited”. The LD50 in series [1] is > 2000 mg/kg. Further, the “TNF-α mRNA level in skin lesion” value with TNF-α mRNA (oral administration 50 and 150 mg/kg) is “statistically significant effect of decreasing TNF-α mRNA level”; with TNF-α mRNA (topical application 20 and 60 mg/kg), “effect of decreasing TNF-α mRNA level”. Besides, in the series with glycoprotein (mucin), the “glycoprotein level in the BAL fluid” value was “decreased glycoprotein level”.

For orientation: LD50 means the dose expected to kill half of the subjects tested.
